In the supplement of paper PMC10307832:

What was measured:
Assay in all cases: relative viability (nuclei count vs DMSO), 5 days (fraction); higher = more cells survive
[1] = compound: CC1=C(CC(=O)O)c2cc(F)ccc2/C1=C\c1ccc([S+](C)[O-])cc1 [Sulindac] + CC(=O)c1c(C)c2cnc(Nc3ccc(N4CCNCC4)cn3)nc2n(C2CCCC2)c1=O [Palbociclib] (partner 0.5 µM)
Summary of the method: (§1)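 Values are medians from duplicate plates. Each reflects relative viability, defined as the nuclei count of treated wells over that of vehicle wells. Lung cancer cell lines in 1536-well plates were pin-tool dosed one day after seeding with one drug alone or with a fixed anchor-drug dose plus five library-drug doses (not always all listed) in √10 steps, then fixed, stained and imaged at 4× after 5 days.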

[2] = compound: CN[C@@H]1C[C@H]2O[C@@](C)([C@@H]1OC)n1c3ccccc3c3c4c(c5c6ccccc6n2c5c31)C(=O)NC4 [Staurosporine] + CC(C)C[C@H](NC(=O)[C@H](Cc1ccccc1)NC(=O)c1cnccn1)B(O)O [Bortezomib] (partner 0.002 µM)
Summary of the method: as §1

[3] = compound: CN[C@@H]1C[C@H]2O[C@@](C)([C@@H]1OC)n1c3ccccc3c3c4c(c5c6ccccc6n2c5c31)C(=O)NC4 [Staurosporine] + COc1cc2c(Oc3ccc(NC(=O)C4(C(=O)Nc5ccc(F)cc5)CC4)cc3F)ccnc2cc1OCCCN1CCOCC1 [Foretinib] (partner 0.25 µM)
Summary of the method: as §1

[4] = compound: CN[C@@H]1C[C@H]2O[C@@](C)([C@@H]1OC)n1c3ccccc3c3c4c(c5c6ccccc6n2c5c31)C(=O)NC4 [Staurosporine] + CS(=O)(=O)CCNCc1ccc(-c2ccc3ncnc(Nc4ccc(OCc5cccc(F)c5)c(Cl)c4)c3c2)o1 [Lapatinib] (partner 2 µM)
Summary of the method: as §1

| Cell Line | relative viability ([1]; first compound 0.08 µM) | relative viability ([1]; first compound 0.253 µM) | relative viability ([1]; first compound 0.8 µM) | relative viability ([1]; first compound 2.53 µM) | relative viability ([1]; first compound 8 µM) | relative viability ([2]; first compound 0.005 µM) | relative viability ([2]; first compound 0.01581 µM) | relative viability ([2]; first compound 0.05 µM) | relative viability ([2]; first compound 0.1581 µM) | relative viability ([2]; first compound 0.5 µM) | relative viability ([3]; first compound 0.005 µM) | relative viability ([3]; first compound 0.05 µM) | relative viability ([3]; first compound 0.1581 µM) | relative viability ([3]; first compound 0.5 µM) | relative viability ([4]; first compound 0.005 µM) | relative viability ([4]; first compound 0.01581 µM) | relative viability ([4]; first compound 0.05 µM) | relative viability ([4]; first compound 0.1581 µM) | relative viability ([4]; first compound 0.5 µM) | relative viability ([3]; first compound 0.01581 µM) |
| --- | --- | --- | --- | --- | --- | --- | --- | --- | --- | --- | --- | --- | --- | --- | --- | --- | --- | --- | --- | --- |
| NCI-H1437 | 0.358 | 0.296 | 0.294 | 0.314 | 0.333 | 0.356 | 0.167 | 0.294 | 0.0975 | 0.0786 | 1.13 | 0.854 | 0.58 | 0.169 | 0.698 | 0.346 | 0.453 | 0.152 | 0.0978 |  |
| NCI-H1650 | 0.271 | 0.331 | 0.341 | 0.346 | 0.315 | 0.205 | 0.179 | 0.197 | 0.179 | 0.194 | 0.927 | 0.201 | 0.216 | 0.133 | 0.575 | 0.165 | 0.336 | 0.151 | 0.117 | 0.586 |
| NCI-H1651 | 0.493 | 0.471 | 0.483 | 0.554 | 0.578 | 0.997 | 0.772 | 0.661 | 0.368 | 0.349 | 0.74 | 0.346 | 0.259 | 0.0644 | 0.708 | 0.413 | 0.356 | 0.107 | 0.0625 | 0.615 |
| NCI-H1666 | 0.632 | 0.606 | 0.545 | 0.727 | 0.624 | 0.638 | 0.468 | 0.493 | 0.29 | 0.189 | 0.668 | 0.545 | 0.391 | 0.359 | 0.573 | 0.45 | 0.425 | 0.267 | 0.208 | 0.513 |
| NCI-H1734 | 0.298 | 0.345 | 0.311 | 0.32 | 0.402 | 0.741 | 0.316 | 0.251 | 0.127 |  | 0.577 | 0.317 | 0.137 | 0.156 | 0.958 | 0.322 | 0.31 | 0.121 | 0.136 | 0.453 |
| NCI-H1755 | 0.479 | 0.48 | 0.517 | 0.495 | 0.504 | 0.788 | 0.364 | 0.251 | 0.171 | 0.157 | 0.729 | 0.261 | 0.189 | 0.164 | 0.556 | 0.33 | 0.207 | 0.142 | 0.142 | 0.471 |
| NCI-H1915 | 0.566 | 0.538 | 0.574 | 0.517 | 0.506 | 1.04 |  | 0.327 | 0.118 | 0.154 |  | 0.552 | 0.283 | 0.278 | 1.05 |  | 0.584 | 0.272 | 0.192 | 0.542 |
| NCI-H1975 | 0.621 | 0.638 | 0.451 | 0.546 | 0.619 | 0.22 | 0.144 | 0.143 | 0.129 |  | 0.4 | 0.21 | 0.104 | 0.0901 | 0.572 | 0.232 | 0.227 | 0.13 | 0.0954 | 0.349 |
